The numbers were not newly measured in patent US20230149389A1, “METHODS OF REDUCING MORTALITY IN SUBJECTS SUFFERING FROM AN UNDERLYING DISEASE OR CONDITION BY ADMINISTRATION OF METHYLNALTREXONE” (Bausch Health Ireland Limited, priority 2020, published 2023), which cites them from elsewhere.

For data set [1] the following is noted: cited from earlier work.
In the next data set the test system is murine model of sepsis. The settings on record: mouse, in vivo; cited from earlier work.
In data set [2] the test system is human dermal endothelial and pulmonary cells. The conditions noted are these: at clinically relevant levels; cited from earlier work.

In the case of `C[C@H]1CN(C[C@H](Cc2ccccc2)C(=O)NCC(=O)O)CC[C@@]1(C)c1cccc(O)c1` [alvimopan], the “incidence rate for MI” value in data set [1] (placebo 0%) is recorded as 1.30%. The “incidence rate for cardiovascular events” value in data set [1] (placebo 1.12%) was 2.60%.
As to `CN1CC[C@]23c4c5ccc(O)c4O[C@H]2[C@@H](O)C=C[C@H]3[C@H]1C5` [morphine], the “mortality in murine model of sepsis” value in the data set with murine model of sepsis is “increased mortality”. Moreover, in data set [2], the “angiogenic activity relative to vascular endothelial growth factor” value was 70%.
